# Measurements taken from US20050170330A1, “Angiogensis models using nestin-expressing stem cells to image nascent blood vessels” (AntiCancer, Inc., priority 2003, published 2005).
# Columns and labels:
# [1] = tested on: ND-GFP vessels growing from transplanted hair follicles; test: ND-GFP vibrissa follicle transplantation into wounded nude-mouse skin, angiogenesis model; type: in vivo; conditions: nude mice with transplanted ND-GFP vibrissa follicles, compared with carrier-only control group
# Text: For transplantation purposes, vibrissa follicles from ND-GFP transgenic mice is surgically obtained as discussed in Example 8. All follicles are then kept in DMEM/F-12 medium containing B-27 supplement (GIBCO/BRL).
# Recipient nude mice are anesthetized, and a sample of full-thickness skin is folded and two neighboring full-thickness wounds ˜15 mm apart are made with a 2-mm biopsy punch. ND-GFP vibrissa follicles are then transplanted. The incision is closed with nylon sutures (6-0).
# The mice are divided into an experimental group and a control group. The experimental group received a treatment series comprising vascular endothelial growth factor, a known angiogenesis promoting compound in a pharmaceutically acceptable carrier. The control group of mice receives only the carrier.
# Following treatment, samples of subcutis of the transplanted mice are subsequently excised and directly observed by fluorescence microscopy and air-dried or prepared for frozen sections for immunohistochemical staining. […]
# The mice are divided into an experimental group and a control group. The experimental group received a treatment series comprising vasoinhibin, a known angiogenesis inhibiting compound in a pharmaceutically acceptable carrier. The control group of mice receives only the carrier.
# [2] = tested on: B16F10 murine melanoma cells; test: Cord formation in vitro by B16F10 tumor cells; type: cell-based
# Text: B16F10 murine melanoma cells are shown below to mimic endothelial cell behavior and the angiogenic process in vitro and in vivo. Cord formation in vitro by tumor cells is stimulated by hypoxia and vascular endothelial growth factor (VEGF) and inhibited by antibodies against VEGF and the VEGF KDR receptor (VEGF receptor 2).
substance,measurement,setting,value
vascular endothelial growth factor,angiogenic activity based on the amount of GFP activity,[1],higher degree of angiogenic activity
same,cord formation in vitro by tumor cells,[2],stimulated
